This is an account of results in patent US6761922B2, “Sweetener compositions containing aspartyl dipeptide ester compounds” (Ajinomoto Co., Inc., priority 1999, dated 2004).

Like-named read-outs stand apart in the source and are kept apart here. Where a SMILES comes first, the peptide text is derived from it.

For data set [1] the following is noted: cited from earlier work; for sweetness intensity, times that of sucrose by weight: reported in prior publications.
Data set [2] can be described thus: Magnification of sweetness intensity stated or used for calculating the sweetness of compositions. The settings on record: for magnification of sweetness intensity of the derivative as stated for the formulation: value used as basis of calculation, vs sucrose.
A short description of data set [3]: Standing test of suspension at room temperature (precipitation). In kind it is physicochemical. Particulars: 1.0 weight part in 70 weight parts of water, homogenized, 7 days.
Data set [4] in a line: Time required to dissolve completely in 500 ml of water with stirring. Format: physicochemical. The settings on record: 0.0234 g of powder in 500 ml of water, 25° C., 200 rpm. As for the experimental part:
When 50 g of the suspension of the derivative (derivative content 0.0234 g) were added to 500 ml of water (25° C.) with stirring (200 rpm), and the time required to dissolve completely was measured, it took 50 seconds. When 0.0234 g of the powder of the derivative 1, as a reference product, were added to 500 ml of water (25° C.) with stirring (200 rpm) in the same way, and the time required to dissolve completely was measured, it took not less than 3 minutes.

Data set [5] can be described thus: Sensory evaluation in coffee against 4% sucrose coffee, after production and after storage. Format: in vivo. Particulars: 60 days at room temperature, judged from sweetness. The source says:
And, the sweetener composition in the form of suspension was poured into the sealed container and stood still at room temperature for 60 days.

Data set [6] can be described thus: Measurement of the magnification of sweetness intensity in aqueous solution (sensory evaluation against sucrose solutions). Format: in vivo. Particulars: for magnification of sweetness intensity, times that of sucrose: aqueous solution, PSE 10% concentration, 20 panelists. How it is done: [Method for Determining the Magnification of Sweetness Intensity]
An aqueous solution was prepared by diluting derivative 2 to be PSE 10% concentration (15.5 mg/1000 ml=10/6500 g/100 ml), assuming that the intensity of sweetness of derivative 2 was 6500 times that of sucrose. Separately, aqueous sucrose solutions having sucrose concentrations of (a)6.94%, (b)8.33%, (c)10%, (d)12%, and (e)14.4% were prepared. The sensory evaluation was performed by determining which sucrose solution was closest to the solution of derivative 2 in the sweetness intensity. The result of calculation of the average of points of 20 panelists was 2.25 point.
(§1) The sweetness intensity of the solution of derivative 2 was 8.75% according to the following equation: (10.0−8.33)×0.25+8.33=8.75. Therefore, the magnification of sweetness of derivative 2 was 5600 (=8.75/0.00155) times that of sucrose. According to the same experiment, the magnification of sweetness intensity of derivative 1 was 22600 times that of sucrose. Further, the magnification of sweetness intensity of other derivatives (3 to 9) can be determined in the same manner. And the magnification of sweetness intensity in a cola beverage can be also determined by the same method compared to the control solution of cola beverage containing 10% sucrose.

Data set [7] in a line: Measurement of the magnification of sweetness intensity in cola beverage (sensory evaluation against cola with sucrose). In kind it is in vivo. Particulars: control cola beverage containing 10% sucrose.
Excerpt: as §1
Incidentally, the composition of cola beverage is as follows.
Incidentally, as for the concentration of the references, the sucrose concentrations of previous (a) to (e) were used.

The next data set in a line: Solubility. The settings on record: 25° C. In kind it is physicochemical.
The nature of data set [8]: Rate of dissolving and dispersibility of granular products in water. In kind it is physicochemical. Particulars: crude powder in hot water; insoluble coagulates formed. How it is done: *1: As for the rate of dissolving, the distilled water was poured in the 500 ml beaker, 1 g of sample was added to the beaker with gentle mixing by magnetic stirring, and the time of dissolving was measured.

For data set [9] the following is noted: value used as basis of calculation, vs sucrose; cited from earlier work.

As to `COC(=O)[C@H](Cc1ccccc1)NC(=O)[C@@H](N)CC(=O)O` [Aspartame] (H-Asp-Phe-OMe), in [1] (reference sweetener in Example 9), the “Magnification of sweetness intensity (vs. sucrose)” value was 200. Besides, in [1], the “sweetness intensity, times that of sucrose by weight” value was 200 times. The “magnification of sweetness intensity at PSE 0.5%” value in data set [2] (was calculated as) is listed as 360 times.
Take `COC(=O)[C@H](Cc1ccccc1)NC(=O)[C@H](CC(=O)O)NCCCc1ccc(OC)c(O)c1` [Derivative 1, N-[N-[3-(3-hydroxy-4-methoxyphenyl)propyl]-L-α-aspartyl]-L-phenylalanine 1-methyl ester]: in data set [2] (at PSE 4%, was calculated as), the “magnification of sweetness intensity at PSE 4%” value is recorded as 18500 times. In data set [2], the “magnification of sweetness intensity of the derivative as stated for the formulation” value (“magnification … for the formulation” below) was 22600 times. Besides, the precipitation on standing entry in data set [3] is on record as “all suspended substances were precipitated”. In addition, the “time required to dissolve completely” value in data set [4] is listed as “not less than 3 minutes”. Further, the “stability of the derivative in the suspension” value in data set [5] is “not decomposed”. Moreover, in [6], the “magnification of sweetness intensity, times that of sucrose” value is 22600 times and the “Magnification of sweetness intensity relative to sucrose, in aqueous solution” value came to 22600. In [7], the “Magnification of sweetness intensity relative to sucrose, in cola beverage” value was found to be 22600. For the same compound, in “Solubility”, the “solubility against isomerised sugar "Fujikraft"” value was found to be 0.035 g/100 ml and the solubility in water was 0.152 g/100 ml.
Turning to `COC(=O)[C@H](Cc1ccccc1)NC(=O)[C@H](CC(=O)O)NCCCc1ccc(OC)cc1` [Derivative 2, N-[N-[3-(4-methoxyphenyl)propyl]-L-α-aspartyl]-L-phenylalanine 1-methyl ester], in data set [2], the “magnification … for the formulation” value is 5000 times. Moreover, in [2] (value used for Example 9 suspension), the “Magnification of sweetness intensity (vs. sucrose)” value is on record as 5000. For the same compound, the “sweetness intensity of the solution (sucrose equivalent)” value in data set [6] (15.5 mg/1000 ml aqueous solution) stood at 8.75%. In addition, in [6], the “magnification of sweetness intensity, times that of sucrose” value is given as 5600 times and the “Magnification of sweetness intensity relative to sucrose, in aqueous solution” value worked out at 5500. Moreover, the “Magnification of sweetness intensity relative to sucrose, in cola beverage” value in data set [7] is 4900. This compound also had a solubility in water in “Solubility” of 0.009 g/100 ml. Moreover, the “time without reaching complete dissolution” value in [8] was above 5 min.
Regarding `COC(=O)[C@H](Cc1ccccc1)NC(=O)[C@H](CC(=O)O)NCCC(C)(C)c1ccc(OC)c(O)c1` [Derivative 3, N-[N-[3-(3-hydroxy-4-methoxyphenyl)-3-methylbutyl]-L-α-aspartyl]-L-phenylalanine 1-methyl ester], the “Magnification of sweetness intensity relative to sucrose, in aqueous solution” value in [6] stood at 42400. In data set [7], the “Magnification of sweetness intensity relative to sucrose, in cola beverage” value was 37000.
On the same counts, the results for `COC(=O)[C@H](Cc1ccccc1)NC(=O)[C@H](CC(=O)O)NCCC(C)(C)c1ccc(O)c(C)c1` [Derivative 4, N-[N-[3-(3-methyl-4-hydroxyphenyl)-3-methylbutyl]-L-α-aspartyl]-L-phenyl alanine 1-methyl ester] are 43500 and 29600.
In the case of `COC(=O)[C@H](Cc1ccccc1)NC(=O)[C@H](CC(=O)O)NCCC(C)(C)c1ccc(OC)cc1` [Derivative 5, N-[N-[3-(4-methoxyphenyl)-3-methylbutyl]-L-α-aspartyl]-L-phenylalanine 1-methyl ester], in data set [6], the “Magnification of sweetness intensity relative to sucrose, in aqueous solution” value is 8400. Moreover, the “Magnification of sweetness intensity relative to sucrose, in cola beverage” value in data set [7] was found to be 8000.
For the compound `COC(=O)[C@H](Cc1ccccc1)NC(=O)[C@H](CC(=O)O)NCCC(C)(C)c1ccc(O)cc1` [Derivative 6, N-[N-[3-(4-hydroxyphenyl)-3-methylbutyl]-L-α-aspartyl]-L-phenylalanine 1-methyl ester], in data set [2], the “magnification … for the formulation” value is 14000 times. The “Magnification of sweetness intensity relative to sucrose, in aqueous solution” value in [6] turned out to be 14900. In addition, in [7], the “Magnification of sweetness intensity relative to sucrose, in cola beverage” value amounted to 14000.
On to `COC(=O)[C@H](Cc1ccccc1)NC(=O)[C@H](CC(=O)O)NCCCc1ccc(OC)cc1O` [Derivative 7, N-[N-[3-(2-hydroxy-4-methoxyphenyl)propyl]-L-α-aspartyl]-L-phenylalanine 1-methyl ester], for which the “Magnification of sweetness intensity relative to sucrose, in aqueous solution” value in data set [6] was found to be 11100. The “Magnification of sweetness intensity relative to sucrose, in cola beverage” value in [7] is given as 10600.
Regarding `COC(=O)[C@H](Cc1ccccc1)NC(=O)[C@H](CC(=O)O)NCCCc1ccc(O)c(C)c1` [Derivative 8, N-[N-[3-(3-methyl-4-hydroxyphenyl)propyl]-L-α-aspartyl]-L-phenylalanine 1-methyl ester], in [6], the “Magnification of sweetness intensity relative to sucrose, in aqueous solution” value is given as 18200. Besides, in [7], the “Magnification of sweetness intensity relative to sucrose, in cola beverage” value amounted to 15800.
Turning to `COC(=O)[C@H](Cc1ccccc1)NC(=O)[C@H](CC(=O)O)NCCCc1ccc(O)cc1O` [Derivative 9, N-[N-[3-(2,4-dihydroxyphenyl)propyl]-L-α-aspartyl]-L-phenylalanine 1-methyl ester], the “Magnification of sweetness intensity relative to sucrose, in aqueous solution” value in data set [6] stood at 8000. Besides, the “Magnification of sweetness intensity relative to sucrose, in cola beverage” value in [7] was 7500.
On to `OC[C@@H](O)[C@@H](O)CO` [Erythritol], for which the “magnification of sweetness intensity at PSE 0.5%” value in data set [2] (was calculated as) was 0.75 times.
Regarding `COC(=O)[C@H](Cc1ccccc1)NC(=O)[C@H](CC(=O)O)NCCC(C)(C)C` [Neotame], the “sweetness intensity, times that of sucrose by weight” value in data set [1] is given as 10000 times.
As for `OC[C@H]1O[C@@H](O[C@H]2[C@H](O)[C@@H](O)C(O)O[C@@H]2CO)[C@H](O)[C@@H](O)[C@H]1O` (stereo partly shown) [lactose], in data set [9], the “magnification of sweetness intensity of filler used for calculation” value is 0.2.
For the compound `OC[C@@H](O)[C@@H](O[C@H]1O[C@H](CO)[C@@H](O)[C@H](O)[C@H]1O)[C@H](O)[C@@H](O)CO` [maltitole], the “magnification of sweetness intensity of filler used for calculation” value in data set [9] was 0.75.
